Reference: PubChem BioAssay (NCI)
Values joined by “and” are separate entries in the source; they are usually repeats but may differ in a detail not shown here. Equal entries are not always repeated.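 The compound was tested at five concentrations on cells cultured in 96-well plates, with a 48-hour exposure period. GI50 is the concentration that inhibits growth by half. At the TGI there is no net growth.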

How the values were obtained:
Assay in all cases: NCI-60 cell line screen, 48 h
786-0 renal = system: 786-0 renal
NCI-H460 lung = system: NCI-H460 lung
SK-MEL-5 melanoma = system: SK-MEL-5 melanoma
COLO 205 colon = system: COLO 205 colon
SNB-75 CNS = system: SNB-75 CNS
MCF7 breast = system: MCF7 breast
MALME-3M melanoma = system: MALME-3M melanoma
SK-OV-3 ovarian = system: SK-OV-3 ovarian

Row | Structure (SMILES) | TGI (786-0 renal) | TGI (NCI-H460 lung) [µM] | TGI (SK-MEL-5 melanoma) [µM] | TGI (COLO 205 colon) | TGI (SNB-75 CNS) [µM] | TGI (MCF7 breast) | TGI (MALME-3M melanoma) | TGI (SK-OV-3 ovarian) [µM] | GI50 (786-0 renal) | GI50 (NCI-H460 lung) | GI50 (SK-MEL-5 melanoma) | GI50 (COLO 205 colon) | GI50 (SK-OV-3 ovarian) | GI50 (SNB-75 CNS) | GI50 (MCF7 breast) | GI50 (MALME-3M melanoma)
1 | OCC1OC(n2cnc3c2NC=NC[C@H]3O)C(Cl)C1O (stereo partly specified) | > 100 µM | > 100 | > 100 | > 100 µM | > 100 | > 100 µM | > 100 µM | – | – | – | – | – | – | – | – | –
2 | Cc1cc(NC(=S)SCc2ccc(F)cc2)c([N+](=O)[O-])cc1C | > 100 µM | > 100 | 26 | 37.2 µM | > 100 | > 100 µM | 77.7 µM | > 100 | – | – | – | – | – | – | – | –
3 | Nc1nc(Nc2cccnc2)sc1C(=O)c1ccccc1F | > 34.9 µM | 17.9 | 3.32 | 4.68 µM | 4.74 | 8.41 µM | 12.4 µM | > 100 | 3.18 µM | 2.57 µM | 0.349 µM | 1.78 µM | 15.7 µM | 0.58 µM | 1.94 µM | 3.29 µM
4 | C/C(=N\Nc1ccc(Cl)cn1)c1ccc2ccccc2n1 | 7.55 µM | 19.6 | – | > 100 µM | > 100 | > 100 µM | > 100 µM | > 100 | 2.44 µM | 2.92 µM | – | 2.98 µM | 3.73 µM | 3.3 µM | 2.85 µM | 2.21 µM
5 | Cc1cc2ncnn2cc1Nc1ncc2c(n1)n(C1CCOCC1)c(=O)n2C | 94.8 µM | > 100 | 29.2 | > 100 µM | 6.96 | > 100 µM | 29.3 µM | 15.2 | 8.29 µM | 4.74 µM | 14 µM | 4.93 µM | 2.15 µM | 1.12 µM | 3.21 µM | 2.49 µM
6 | CCNCCNc1cc(-c2ccc(C(F)(F)F)cc2)c(C#N)c2nc3ccccc3n12 | 3.06 µM | 2.73 | 3.04 | 2.41 µM | 2.54 | 2.18 µM | 3.34 µM | 3.17 | 1.57 µM | 1.22 µM | 1.67 µM | 1.01 µM | 1.66 µM | 1.23 µM | 0.642 µM | 1.74 µM
7 | CC12OC(C(=O)C13CC3)C1C(=O)c3ccc4c(ccc5ccccc54)c3C(=O)C12 (stereo unspecified) | > 100 µM | 55.6 | – | > 100 µM | > 100 | > 100 µM | 56.6 µM | > 100 | 25.3 µM | 15.6 µM | – | 32.2 µM | 76.4 µM | 51.3 µM | 23.1 µM | 14.2 µM
8 | CC1=CC(=O)C=CC1=O | 33.8 µM and 34.2 µM | 53.4 | 26.3 | 27.3 µM and 25 µM | 24.8 | 34.5 µM and 41.4 µM | 29.7 µM and 27.8 µM | 93.8 | 19.3 µM and 19.1 µM | 32.8 µM and 22.3 µM | 29.3 µM and 13.4 µM | 13.4 µM and 12.1 µM | 37.5 µM and 25.5 µM | 3.02 µM and 11.5 µM | 14.7 µM and 15.4 µM | 13.1 µM and 13.7 µM
9 | S=c1ssc(N2CCOCC2)c1Cl | > 100 µM | 67 | 30 | > 100 µM | – | – | – | > 100 | > 100 µM | 21.5 µM | 16.5 µM | > 100 µM | 28.1 µM | – | – | –
10 | CC(C)c1ccc(-c2cc(-c3cn[nH]c3-c3ccccn3)ccn2)cc1 | > 25 µM | > 25 | > 16.6 | > 25 µM | > 25 | > 25 µM | > 25 µM | > 25 | > 18.8 µM | 7.64 µM | 6.65 µM | 13.3 µM | > 23.4 µM | > 9.11 µM | > 18.9 µM | 8.83 µM
11 | Cc1cc(C)c(NC(=O)c2sc3nc4c(cc3c2N)C(=O)CCC4)c(C)c1 | > 100 µM | 21.2 | 13.8 | > 100 µM | > 100 | > 100 µM | > 100 µM | > 100 | 6.85 µM | 1.56 µM | 0.998 µM | 3.23 µM | 2.07 µM | 2.28 µM | 2.09 µM | 1.83 µM
12 | CCc1nc(N)nc(N)c1-c1ccc(NC)c([N+](=O)[O-])c1 | > 100 µM | > 100 | 29.1 | 34.4 µM | > 100 | > 87.3 µM | > 100 µM | > 100 | – | – | – | – | – | – | – | –
13 | O=c1cc(NCC(O)CN2CCCC2)n(Cc2ccccc2)c(=O)n1Cc1ccccc1 (stereo unspecified) | > 100 µM | > 100 | 32.2 | 40.4 µM | 81.5 | 34.8 µM | 61.7 µM | > 100 | 32.3 µM | 39.7 µM | 17.1 µM | 19.3 µM | > 100 µM | 25.3 µM | 19.1 µM | 22.6 µM
14 | COc1ccc(-c2nc3ccccn3c2/C=C/C(=O)c2cc(OC)c(OC)c(OC)c2)cc1OC | 71 µM | 12.6 | 2.92 | > 100 µM | > 100 | > 100 µM | 7.34 µM | > 100 | 3.74 µM | 2.99 µM | 1.5 µM | 3.92 µM | 4.92 µM | 3.92 µM | 2.76 µM | 2.36 µM
15 | CC1=C(/C=C/Cl)CC(Cl)C(C)(Cl)C1 (stereo unspecified) | > 100 µM | > 100 | > 100 | > 100 µM | > 100 | > 100 µM | > 100 µM | > 100 | – | – | – | – | – | – | – | –
16 | C=CCCCCC/C=C\[C@@H](O)C#CC#C/C=C/CO | > 100 µM | > 100 | > 100 | > 100 µM | > 100 | > 100 µM | > 100 µM | > 100 | > 100 µM | > 100 µM | > 100 µM | > 100 µM | > 100 µM | 0.536 µM | 32.7 µM | > 100 µM
17 | CC(C)c1c(O)c(O)c2c(c1O)C(=O)C(O)=C1C(C)(C)CCC[C@@]12C | 13.8 µM | 10.1 | 10.8 | 3.6 µM | 8.12 | 12.7 µM | 15.9 µM | 15.6 | – | – | – | – | – | – | – | –
18 | NC(=O)c1cc(Cl)ccc1NC(=O)/C=C/c1ccccc1 | > 34.8 µM | > 100 | – | > 24.1 µM | > 23.7 | > 100 µM | > 100 µM | > 35.5 | 3.86 µM | 3.09 µM | 0.787 µM | 2.16 µM | 4.3 µM | 3.16 µM | 1.78 µM | 3.18 µM
